Assay results from patent US8409619B2, “Oral drug delivery system for azole, moxifloxacin and rifampicin” (priority 2008, dated 2013).
Like-named read-outs stand apart in the source and are kept apart here.

How the values were obtained:
[1] = system: M. tuberculosis H37Rv; test: Experimental infection and chemotherapy (murine tuberculosis, cfu in lungs and spleen); format: in vivo; conditions: for Log10 cfu Lung / Log10 cfu Spleen: mice infected i.v. with M. tuberculosis H37Rv, eight weeks oral chemotherapy, sacrificed day 62, mean ± S.D.; for reduction of bacterial burden in organs / cfu reduction from lungs and spleen as compared to untreated controls: mice, eight weeks of chemotherapy; for cfu reduction from lungs and spleen as compared to untreated controls: free form daily/twice daily or encapsulated form weekly
[2] = not given; remark: listed apart in the source

SMILES	Log10 cfu Lung [1] [Log10 cfu]	Log10 cfu Spleen [1] [Log10 cfu]	reduction of bacterial burden in organs [1]	cfu reduction from lungs and spleen as compared to untreated controls [1]	time up to which drug was detected in organs (oral free drug, mice) [h]	time up to which drug was detectable in plasma ([2]; oral free drug, mice)	time up to which drug was detected in organs (mouse, in vivo, po)	time up to which drug was detectable in plasma ([2]; mouse, in vivo, po) [h]
COc1c(N2C[C@@H]3CCCN[C@@H]3C2)c(F)cc2c(=O)c(C(=O)O)cn(C3CC3)c12 [Free moxifloxacin, moxifloxacin]	4.96 ± 0.013	4.96 ± 0.013	about 2 log cfu	approximately 2 Log10 cfu	≤ 24	up to 12 h		
Clc1ccc(COC(Cn2ccnc2)c2ccc(Cl)cc2Cl)cc1 (stereo not drawn) [Free econazole, econazole]	4.87 ± 0.040	4.89 ± 0.020	about 2 log cfu	approximately 2 Log10 cfu			up to 12 h	3 to 4
